Our source for the IC50 values is patent US8697687B2, “Treating diseases mediated by blockade of the epithelial sodium channel with pyrazine-2-carboxamide derivatives” (Novartis AG, priority 2007, dated 2014).

Usually IC50 stands for the concentration at which inhibition is half-maximal.

Read-outs that look alike come from different tables or passages of the source.

The target in this assay is T1, epithelial sodium channel (ENaC) (Homo sapiens, UniProt P37088+P51168+P51170).
T1 construct: host or cells: primary Human Bronchial Epithelial cells (HBECs), air-liquid interface culture
T1 sequence (P37088 1-669): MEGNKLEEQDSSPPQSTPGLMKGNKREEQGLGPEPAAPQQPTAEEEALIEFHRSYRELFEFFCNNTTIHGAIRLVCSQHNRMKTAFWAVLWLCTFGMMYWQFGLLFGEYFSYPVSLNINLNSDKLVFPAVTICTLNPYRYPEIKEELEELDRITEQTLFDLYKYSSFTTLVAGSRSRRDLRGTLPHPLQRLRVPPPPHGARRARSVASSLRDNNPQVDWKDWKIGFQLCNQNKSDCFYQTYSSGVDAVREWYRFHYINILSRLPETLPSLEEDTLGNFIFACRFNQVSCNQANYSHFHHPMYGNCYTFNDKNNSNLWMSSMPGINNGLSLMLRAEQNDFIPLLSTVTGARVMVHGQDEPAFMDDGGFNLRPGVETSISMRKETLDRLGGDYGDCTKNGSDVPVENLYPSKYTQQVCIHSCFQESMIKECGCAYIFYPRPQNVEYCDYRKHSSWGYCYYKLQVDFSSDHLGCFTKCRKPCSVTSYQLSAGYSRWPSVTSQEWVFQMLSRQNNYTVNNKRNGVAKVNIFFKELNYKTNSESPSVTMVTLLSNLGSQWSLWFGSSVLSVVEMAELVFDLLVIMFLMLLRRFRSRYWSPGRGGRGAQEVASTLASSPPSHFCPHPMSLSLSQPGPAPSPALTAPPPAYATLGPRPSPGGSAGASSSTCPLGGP
T1 sequence (P51168 1-640): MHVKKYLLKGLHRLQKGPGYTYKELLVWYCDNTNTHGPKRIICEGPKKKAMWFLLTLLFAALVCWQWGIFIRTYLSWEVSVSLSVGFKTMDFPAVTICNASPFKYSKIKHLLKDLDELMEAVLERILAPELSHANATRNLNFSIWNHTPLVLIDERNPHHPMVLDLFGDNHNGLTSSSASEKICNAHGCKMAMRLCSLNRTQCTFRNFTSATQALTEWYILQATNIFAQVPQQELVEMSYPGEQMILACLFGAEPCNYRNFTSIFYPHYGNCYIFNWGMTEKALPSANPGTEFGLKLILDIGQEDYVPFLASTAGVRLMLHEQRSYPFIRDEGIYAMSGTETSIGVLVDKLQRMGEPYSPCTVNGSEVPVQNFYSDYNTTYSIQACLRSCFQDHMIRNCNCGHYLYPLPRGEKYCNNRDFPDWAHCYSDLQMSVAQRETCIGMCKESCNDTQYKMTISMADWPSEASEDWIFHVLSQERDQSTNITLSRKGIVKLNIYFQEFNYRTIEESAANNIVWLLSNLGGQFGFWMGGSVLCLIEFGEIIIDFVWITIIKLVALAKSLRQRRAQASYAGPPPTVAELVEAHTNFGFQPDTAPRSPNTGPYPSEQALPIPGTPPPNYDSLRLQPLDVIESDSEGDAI
T1 sequence (P51170 1-649): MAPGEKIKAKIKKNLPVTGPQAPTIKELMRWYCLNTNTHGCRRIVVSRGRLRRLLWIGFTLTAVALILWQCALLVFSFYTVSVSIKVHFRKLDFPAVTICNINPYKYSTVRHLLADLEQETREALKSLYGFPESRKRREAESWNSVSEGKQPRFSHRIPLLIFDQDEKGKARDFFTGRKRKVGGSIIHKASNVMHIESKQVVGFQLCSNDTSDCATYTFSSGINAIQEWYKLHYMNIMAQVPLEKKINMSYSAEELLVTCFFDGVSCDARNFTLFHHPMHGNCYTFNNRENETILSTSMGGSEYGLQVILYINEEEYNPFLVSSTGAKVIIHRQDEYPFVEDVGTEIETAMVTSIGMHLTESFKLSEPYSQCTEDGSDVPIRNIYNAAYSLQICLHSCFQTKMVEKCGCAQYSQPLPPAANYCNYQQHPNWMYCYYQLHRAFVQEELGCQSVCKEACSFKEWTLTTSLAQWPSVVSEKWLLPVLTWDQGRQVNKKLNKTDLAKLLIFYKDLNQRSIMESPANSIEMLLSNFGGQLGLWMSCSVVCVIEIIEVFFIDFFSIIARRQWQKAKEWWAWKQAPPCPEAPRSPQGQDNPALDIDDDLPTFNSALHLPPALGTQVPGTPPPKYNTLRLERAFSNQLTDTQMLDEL
The assay is described as follows: Short circuit current (ISC) measurements in Human Bronchial Epithelial cells, inhibition of amiloride-sensitive ISC. Format: cell-based. As to the method:
Compounds of formula (I) and their pharmaceutically acceptable salts, hereinafter referred to alternatively as “agents of the invention”, are useful as pharmaceuticals. In particular, the compounds have good ENaC blocker activity and may be tested in the following assays.
Human Bronchial Epithelial cells (HBECs) (Cambrex) were cultured under air-liquid interface conditions to provide a well differentiated mucociliary phenotype.
HBECs were cultured using a modification of the method described by Gray and colleagues (Gray et al., 1996). Cells were seeded in plastic T-162 flasks and were grown in bronchial epithelial cell growth medium (BEGM; Cambrex) supplemented with bovine pituitary extract (52 μg/mL), hydrocortisone (0.5 μg/mL), human recombinant epidermal growth factor (0.5 ng/mL), epinephrine (0.5 μg/mL), transferrin (10 μg/mL), insulin (5 μg/mL), retinoic acid (0.1 μg/mL), triiodothyronine ([…]), gentamycin (50 μg/mL) and amphotericin B (50 ng/mL). Medium was changed every 48 hours until cells were 90% confluent. Cells were then passaged and seeded (8.25×10^5 cells/insert) on polycarbonate Snapwell inserts (Costar) in differentiation media containing 50% DMEM in BEGM with the same supplements as above but without triiodothyronine and a final retinoic acid concentration of 50 nM (all-trans retinoic acid). Cells were maintained submerged for the first 7 days in culture, after which time they were exposed to an apical air interface for the remainder of the culture period. At this time, media was changed to DMEM:F12 media containing 2% v/v Ultroser G for the remainder of culture. Amphotericin B was removed from all media 3 feeds prior to use in the Using Chambers. Cells were used between days 7 and 21 after establishment of the apical-air interface. At all stages of culture, cells were maintained at 37° C. in 5% CO2 in an air incubator.
Short Circuit Current (ISC) Measurements
Snapwell inserts were mounted in Vertical Diffusion Chambers (Costar) and were bathed with continuously gassed Ringer solution (5% CO2 in O2; pH 7.4) maintained at 37° C. containing (in mM): 120 NaCl, 25 NaHCO3, 3.3 KH2PO4, 0.8 K2HPO4, 1.2 CaCl2, 1.2 MgCl2, and 10 glucose. The solution osmolarity was between 280 and 300 mOsmol/kg H2O for all physiological salt solutions used. Cells were voltage clamped to 0 mV (model EVC4000; WPI). RT was measured by applying a 1- or 2-mV pulse at 30-s intervals and calculating RT by Ohm's law. Data were recorded using a PowerLab workstation (ADInstruments).
Test compounds were prepared as a 10 mM stock solution in DMSO (95%). Serial 3-fold dilutions were freshly prepared in an appropriate vehicle (distilled H2O or Ringers solution). The initial concentration was added to the apical chamber as a 1000× concentrate in 5 μL, resulting in a final 1× concentration the 5 mL volume of the Ussing chamber. Subsequent additions of compound were added in a 3.3 μL volume of the 1000× serially diluted stock solution. At the completion of the concentration-response experiment, amiloride (10 μM) was added into the apical chamber to enable the total amiloride-sensitive current to be measured. An amiloride control IC50 was established at the start of each experiment.
Results are expressed as the mean % inhibition of the amiloride-sensitive ISC. Concentration-response curves were plotted and IC50 values generated using GraphPad Prism 3.02. Cell inserts were typically run in duplicate and the IC50 calculated on the mean % inhibition data.

The mark [1] stands for this setting: inhibition of the amiloride-sensitive ISC, Human Bronchial Epithelial cells (HBECs) at air-liquid interface, compound added to apical chamber, read-out: IC50.

For `Cc1nc(-c2ccccc2)ncc1C(=O)N1CCC2(CC1)CN/C(=N\C(=O)c1nc(Cl)c(N)nc1N)N2` [Example 58, 3,5-Diamino-6-chloro-pyrazine-2-carboxylic acid [8-(4-methyl-2-phenyl-pyrimidine-5-carbonyl)-1,3,8-triaza-spiro[4.5]dec-(2E)-ylidene]-amide], the IC50 under setting [1] was 143 nM. With `Cc1ccc(S(=O)(=O)n2ccc(C(=O)N3CCC4(CC3)CN/C(=N\C(=O)c3nc(Cl)c(N)nc3N)N4)c2)cc1` [Example 147, 3,5-Diamino-6-chloro-pyrazine-2-carboxylic acid [8-[1-(toluene-4-sulfonyl)-1H-pyrrole-3-carbonyl]-1,3,8-triaza-spiro[4.5]dec-(2E)-ylidene]-amide], the IC50 under setting [1] is 16 nM. For `Nc1nc(N)c(C(=O)/N=C2\NCC3(CCN(C(=O)c4cn(S(=O)(=O)c5ccccc5)c5ccccc45)CC3)N2)nc1Cl` [Example 40, 3,5-Diamino-6-chloro-pyrazine-2-carboxylic acid [8-(1-benzenesulfonyl-1H-indole-3-carbonyl)-1,3,8-triaza-spiro[4.5]dec-(2E)-ylidene]-amide], the IC50 under setting [1] came out at 5.5 nM.

For `CC(C)(CCOCc1ccccc1)C[C@H]1CN/C(=N/C(=O)c2nc(Cl)c(N)nc2N)N1` [Example 26], the IC50 under setting [1] is 11 nM.

Turning to `Cn1ccc2cc(S(=O)(=O)N3CCC4(CC3)CN/C(=N\C(=O)c3nc(Cl)c(N)nc3N)N4)ccc21` [Example 235, 3,5-Diamino-6-chloro-pyrazine-2-carboxylic acid [8-(1-methyl-1H-indole-5-sulfonyl)-1,3,8-triaza-spiro[4.5]dec-(2E)-ylidene]-amide], the IC50 under setting [1] was found to be 364 nM. For `Nc1nc(N)c(C(=O)/N=C2\NCC3(CCN(C(=O)C4CC(=O)N(CCCn5cccc5)C4)CC3)N2)nc1Cl` (centres unmarked) [Example 45, 3,5-Diamino-6-chloro-pyrazine-2-carboxylic acid [8-[5-oxo-1-(3-pyrrol-1-yl-propyl)-pyrrolidine-3-carbonyl]-1,3,8-triaza-spiro[4.5]dec-(2E)-ylidene]-amide], the IC50 under setting [1] came to 42.6 nM. Same read-out and setting: to `Nc1nc(N)c(C(=O)/N=C2/NC[C@@H](CCCc3ccc(OCC(=O)N4CCOCC4)cc3)N2)nc1Cl` [Example 23, 3,5-Diamino-6-chloro-pyrazine-2-carboxylic acid [(R)-4-{3-[4-(2-morpholin-4-yl-2-oxo-ethoxy)-phenyl]-propyl}-imidazolidin-(2Z)-ylidene]-amide] belongs 33.5 nM.

For the compound `Nc1nc(N)c(C(=O)/N=C2\NCC3(CCN(C(=O)c4ccc(C(=O)N5CCC6(CC5)CN/C(=N\C(=O)c5nc(Cl)c(N)nc5N)N6)cc4)CC3)N2)nc1Cl` [Example 96], the 50% inhibitory concentration (IC50) was 37 nM. As for `Nc1nc(N)c(C(=O)/N=C2\NCC3(CCN(C(=O)c4cocn4)CC3)N2)nc1Cl` [Example 118, 3,5-Diamino-6-chloro-pyrazine-2-carboxylic acid [8-(oxazole-4-carbonyl)-1,3,8-triaza-spiro[4.5]dec-(2E)-ylidene]-amide], the IC50 under setting [1] was 175 nM. Same read-out and setting: to `Nc1nc(N)c(C(=O)/N=C2\NC[C@H](CCCCNS(=O)(=O)Cc3ccccc3)N2)nc1Cl` [Example 35, 3,5-Diamino-6-chloro-pyrazine-2-carboxylic acid [(S)-4-(4-phenylmethanesulfonylamino-butyl)-imidazolidin-(2E)-ylidene]-amide] belongs 31 nM. Take `CCN(CC)C(=O)Cn1ccc2c(C(=O)N3CCC4(CC3)CN/C(=N\C(=O)c3nc(Cl)c(N)nc3N)N4)cccc21` [Example 91, 3,5-Diamino-6-chloro-pyrazine-2-carboxylic acid [8-(1-diethylcarbamoylmethyl-1H-indole-4-carbonyl)-1,3,8-triaza-spiro[4.5]dec-(2E)-ylidene]-amide]: the IC50 under setting [1] amounted to 88.5 nM. The same measure, in the same setting: to `CC(C)NC(=O)Nc1cccc(C(=O)N2CCC3(CC2)CN/C(=N\C(=O)c2nc(Cl)c(N)nc2N)N3)c1` [Example 43, 3,5-Diamino-6-chloro-pyrazine-2-carboxylic acid [8-[3-(3-isopropyl-ureido)-benzoyl]-1,3,8-triaza-spiro[4.5]dec-(2E)-ylidene]-amide] belongs 13 nM. Regarding `Nc1nc(N)c(C(=O)/N=C2\NCC3(CCN(C(=O)Cc4csc5ccccc45)CC3)N2)nc1Cl` [Example 44, 3,5-Diamino-6-chloro-pyrazine-2-carboxylic acid [8-(2-Benzo[b]thiophen-3-yl-acetyl)-1,3,8-triaza-spiro[4.5]dec-(2E)-ylidene]-Amide], the IC50 under setting [1] stood at 29.5 nM. Regarding `Nc1nc(N)c(C(=O)/N=C2\NCC3(CCN(C(=O)NCc4ccccc4)CC3)N2)nc1Cl` [Example 215, 2-[(E)-3,5-Diamino-6-chloro-pyrazine-2-carbonylimino]-1,3,8-triaza-spiro[4.5]decane-8-carboxylic acid benzylamide], the IC50 under setting [1] came to 36 nM.
